The source of these data is paper PMC12884720, “Gabpα‐Pparγ Complex Determines Glycolytic Capacity and Lactic Acid Homeostasis in Brown Fat” (Advanced Science, 2025).

To fix the notation:
B2: Gabpα protein (SPR analyte) (natural protein, UniProt Q00422 1-454, looked up)
chain: MTKREAEELIEIEIDGTEKAECTEESIVEQTYTPAECVSQAIDINEPIGNLKKLLEPRLQCSLDAHEICLQDIQLDPDRSLFDQGVKTDGTVQLSVQVISYQGMEPKLNILEIVKTAETVEVVIDPDAHHAEAEAHLVEEAQVITLDGTKHITTISDETSEQVTRWAAALEGYRKEQERLGIPYDPIHWSTDQVLHWVVWVMKEFSMTDIDLTTLNISGRELCSLNQEDFFQRVPRGEILWSHLELLRKYVLASQEQQMNEIVTIDQPVQIIPASVPPATPTTIKVINSSAKAAKVQRSPRISGEDRSSPGNRTGNNGQIQLWQFLLELLTDKDARDCISWVGDEGEFKLNQPELVAQKWGQRKNKPTMNYEKLSRALRYYYDGDMICKVQGKRFVYKFVCDLKTLIGYSAAELNRLVIECEQKKLARMQLHGIAQPVTAVALAATSLQADKEI
notes: May be the Cusabio GST-Gabpα of the pull-down

No end group written: not given here. *: point of attachment. FITC = O=C1OC2(c3ccc(O)cc3Oc3cc(O)ccc32)c2ccc(NC(=S)*)cc21

Assay [1] has as its system differentiated iBAT‐SVF cells. As to the kind of experiment: Relative mRNA and protein levels in differentiated iBAT-SVF cells. Type of assay: cell-based, C57BL/6 mice. The note with it: GPCBi 5 µM, first 2 days of differentiation, and Enoblock 10 µM for 24 h (Figure 5p). As to the method: Interscapular BAT‐SVF cells were obtained from eight‐week‐old male C57BL/6 mice. […] The tissue homogenates were filtered through a 70 µm cell strainer and centrifuged at 1000 rpm for 5 min. The cell pellet was resuspended in DMEM supplemented with 10% FBS (Sigma–Aldrich) and 1% penicillin/streptomycin (P/S) at 37 °C with 5% CO2. The next day, BAT‐SVF cells were immortalized with the SV40 large T antigen according to a published protocol.^[ [32] ^] […] After 48 h, the induction medium was replaced with a maintenance cocktail (5 µg mL^−1 insulin, 1 nM triiodo‐L‐thyronine, and 1 µM rosiglitazone) until 6 to 8 days after the induction of differentiation.
Reverse transcription of cDNA was completed via the use of 1 µg of RNA with HiScript II Q RT SuperMix for real‐time quantitative PCR (qPCR) (Vazyme Biotech, Nanjing, China, Cat# R222) according to the provided protocols. qPCR was performed with a real‐time PCR system on a QuantStudio1 (Applied Biosystems) using Taq Pro Universal SYBR qPCR Master Mix (Vazyme Biotech., Nanjing, China, Cat# Q712‐02). Relative transcript levels were calculated via the comparative C T method; 36b4 was used as the internal control for cells, whereas Hprt was used as the internal control for tissues. The primer sequences are listed in Table S1 (Supporting Information). The mRNAs from the BAT of control and Gabpα ^Ucp1 KO mice were extracted and subjected to commercial RNA‐seq (BGI Genomics Co., Ltd.) for further DEG and KEGG pathway enrichment analysis. In detail, RNA quality was examined with Fragment (Agilent). High‐quality RNA (RIN > 8.0) was used to library construction. RNA‐seq was performed at BGI Genomics (China) using the Illumina NovaSeq 6000 platform. Clean reads were aligned to the mouse reference genome (GRCm39) using Bowtie2, and transcript quantification was performed with RSEM. […] The RNA‐seq data generated in this study have been deposited in the National Center for Biotechnology Information Sequence Read Archive database under accession code PRJNA1358056.
Cells and tissues were lysed in RIPA lysis buffer (Beyotime, Shanghai, China, Cat# P0013B) containing a protease inhibitor cocktail (MedChem Express, NJ, USA, Cat# HY‐K0010) according to the manufacturer's protocol. Equal amounts of protein were separated on SDS‒PAGE gels and transferred to PVDF membranes (Millipore). The PVDF membranes were blocked in 5% skim milk for 1 h at room temperature and then incubated with primary antibody overnight at 4 °C. The membranes were washed three times with TBST and then incubated with HRP‐conjugated secondary antibodies for 1 h at room temperature. After washing three times, the Western blots were imaged via an enhanced chemiluminescence system.

Assay [2] relates to differentiated iBAT‐SVF cells. The assay is described as follows: Lactate levels in differentiated iBAT-SVF cells. Type of assay: cell-based, C57BL/6 mice. The note with it: GPCBi 5 µM, first 2 days of differentiation, and Enoblock 10 µM for 24 h (Figure 5o). As to the method:
(§1) Interscapular BAT‐SVF cells were obtained from eight‐week‐old male C57BL/6 mice. Briefly, BAT was excised, washed in PBS, minced, and digested at 37 °C for 40 min in Hanks solution containing type II collagenase (Sigma, Cat# C‐6885) and 4% bovine serum albumin (BSA). The tissue homogenates were filtered through a 70 µm cell strainer and centrifuged at 1000 rpm for 5 min. The cell pellet was resuspended in DMEM supplemented with 10% FBS (Sigma–Aldrich) and 1% penicillin/streptomycin (P/S) at 37 °C with 5% CO2. The next day, BAT‐SVF cells were immortalized with the SV40 large T antigen according to a published protocol.^[ [32] ^] For iBAT‐SVF cell differentiation, confluent SVF cells were induced to differentiate with medium containing 0.5 mM isobutylmethylxanthine (Sigma, Cat# I‐5879), 125 µM indomethacin (Sigma, Cat# I‐7378), 2 µg mL^−1 dexamethasone (Sigma, Cat# D‐1756), 5 µg mL^−1 insulin (Solarbio, Cat# I‐8040), 1 nM triiodo‐L‐thyronine (Sigma, Cat# T‐2877), and 1 µM rosiglitazone (Cayman, Cat# 71740‐100). After 48 h, the induction medium was replaced with a maintenance cocktail (5 µg mL^−1 insulin, 1 nM triiodo‐L‐thyronine, and 1 µM rosiglitazone) until 6 to 8 days after the induction of differentiation.
Brown fat was homogenized with lysis buffer, ultrasonographically treated on ice at 300 W (on for 3 s, off for 7 s) for 2 min, and then centrifuged at 4 °C at 12 000 × g for 10 min. […] All protocols were followed in accordance with the manufacturer's guidelines.

The next assay concerns Eno1 promoter. As to the kind of experiment: Luciferase reporter assay, Eno1-Luc activated by Gabpα and Pparγ/Rxrα. Type of assay: cell-based, human. The note with it: HEK293T cells, T0070907 10 µM, n = 3 (Figure 3o). As to the method: HEK293T cells were transfected with 100 ng of Pparγ and 100 ng of Rxrα or empty vector together with 100 ng of Gabpα plasmid or the C‐terminal truncation mutants and 200 ng of Eno1 luciferase reporter plasmid in 24‐well plates via Lipofectamine reagent (Yeasen, Shanghai, China, Cat# 40802ES03). For the experiments with the peptides GPCBi or T0070907, the additional peptides GPCBi (3 µM) or T0070907 (10 µM) were added to the HEK293T cells one day after the plasmid complex was transfected. After 48 h of transfection, luciferase activity was measured via the Dual‐Luciferase Reporter Assay System (Vazyme Biotech., Nanjing, China; Cat# DL101‐01). Firefly luciferase reporter gene measurements were normalized to Renilla luciferase activity.

Another assay relates to BAT from wild‐type mice. The assay is described as follows: H&E staining and Ucp1 immunostaining of BAT. The class given is in vivo, wild‐type C57BL/6J mice. The note with it: GPCBi 5.5 mg kg^−1 in BAT for 7 days, then sodium lactate 2 g kg^−1 d^−1 i.p. daily for 3 days following 10 °C for 2 days; Ucp1 immunostaining (Figure 5g-i). As to the method:
The mouse experiments were approved by the Institutional Animal Care and Use Committee of the Institute of Model Animals of Tongji Hospital, Huazhong University of Science and Technology, and were performed in compliance with all relevant ethical regulations (approval number: TJH‐202110044). Unless otherwise noted, the mice were housed in a pathogen‐free and climate‐controlled environment (22–25 °C, 40‐60% humidity) and were given free access to food and water on a 12 h light/dark cycle. Wild‐type C57BL/6J mice were obtained from Beijing Huafukang Bioscience Co., Ltd. (Beijing, China). Gabpa ^flox/flox , Adipoq^Cre , and Ucp1^Cre mice were purchased from Cyagen Biosciences, Inc. (Guangzhou, China). For GPCBi treatment, wild‐type mice were orthotopically injected GPCBi (FITC‐[…]; 5.5 mg kg^−1) or scramble peptide (FITC‐[…]; 5.5 mg kg^−1) into the BAT at room temperature for one week. […] For cold exposure, the mice were caged individually and exposed to a temperature of 10 or 4 °C. The mice were euthanized by CO2 inhalation. For studies with specific diets, five‐week‐old male Gabpα ^Adipo KI mice and their respective littermate control mice were fed a HFD (D12492, Research Diets; 60 kcal% fat, 20 kcal% carbohydrates, and 20 kcal% protein; Medicience Ltd., Jiangsu, China) at ambient temperature. The food was changed every week. Body weight was measured every week, and tissue weights were measured at the time of euthanasia.
For haematoxylin and eosin (H&E) staining, adipose tissues and the liver were fixed in 4% paraformaldehyde overnight at 4 °C and then dehydrated in 70% ethanol. The tissues were subsequently embedded in paraffin, sectioned at a thickness of 5 µm, and stained with H&E or immunostained with a Ucp1 antibody (Abcam, UK, Cat# ab234430, 1:500 dilution) following the standard protocol. For Oil Red O staining, frozen liver sections were stained with Oil Red O solution for 10 min and then counterstained with haematoxylin for 20 s. Images of the tissue samples were captured via an Olympus BX53 Orthomicroscope. […]

For a further assay, the system named is iBAT‐SVF cells. As to the kind of experiment: Immunofluorescence, nuclear localization of FITC-GPCBi in iBAT-SVF cells. Type of assay: cell-based, C57BL/6 mice. Conditions: FITC‐GPCBi 5 µM, first 2 days of adipogenic differentiation; DAPI (Figure 4d). As to the method: as §1, with “After 48 h, the induction medium was replaced with a maintenance cocktail (5 µg mL^−1 insulin, 1 nM triiodo‐L‐thyronine, and 1 µM rosiglitazone) until 6 to 8 days after the induction of differentiation.” left out
Differentiated iBAT‐SVF cells were fixed with 4% paraformaldehyde for 20 min at room temperature and then rinsed three times with PBS. […] The cells were subsequently washed three times with PBS and incubated with a fluorescence‐conjugated secondary antibody (ABclonal, Wuhan, China, Cat# AS053; AS008, 1:200 dilution) for 1 h at room temperature. […]

The target of assay [3] is B2. As to the kind of experiment: not stated; direct binding of GPCBi to Gabpα, dose-dependent (Figure S4d); method and who was immobilised not told. Conditions: both partners purified.
The target in assay [4] is T1, Pparγ protein (SPR ligand) (UniProt P37238 1-505).
T1 construct: May be the Cusabio His-Pparγ of the pull-down
T1 sequence (looked up): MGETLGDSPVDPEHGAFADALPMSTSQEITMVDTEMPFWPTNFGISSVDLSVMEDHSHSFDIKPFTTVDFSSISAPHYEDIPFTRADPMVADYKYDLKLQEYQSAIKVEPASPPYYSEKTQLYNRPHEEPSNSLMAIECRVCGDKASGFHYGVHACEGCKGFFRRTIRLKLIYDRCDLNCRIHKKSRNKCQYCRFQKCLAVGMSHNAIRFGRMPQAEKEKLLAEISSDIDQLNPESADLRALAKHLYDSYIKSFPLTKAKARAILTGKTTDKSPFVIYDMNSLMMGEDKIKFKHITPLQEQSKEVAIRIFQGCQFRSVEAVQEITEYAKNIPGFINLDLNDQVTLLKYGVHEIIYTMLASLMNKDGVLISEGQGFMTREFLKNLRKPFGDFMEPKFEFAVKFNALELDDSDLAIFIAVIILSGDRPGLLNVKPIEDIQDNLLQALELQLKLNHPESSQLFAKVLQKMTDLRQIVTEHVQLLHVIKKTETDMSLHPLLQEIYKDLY
As to the kind of experiment: SPR; Biacore T200, CM5 chip; Pparγ immobilised covalently; different concentrations of Gabpα injected; 120 s association, 200 s dissociation. Conditions: both partners purified.

Consider `NCCOCCOCCNC(=O)Cc1ccc(Nc2nc(NCc3ccc(F)cc3)nc(NCC3CCCCC3)n2)cc1` [Enoblock, reference compound], for which the “ucp1 expression when Enoblock further added to GPCBi-treated brown adipocytes” value in assay [1] is on record as “no change”. Besides, the “GPCBi-induced reduction of lactate level in presence of Enoblock” value in assay [2] is listed as “not observed”.

Turning to `O=C(Nc1ccncc1)c1cc([N+](=O)[O-])ccc1Cl` [T0070907, reference compound], the “Eno1 promoter activity induced by Gabpα” value with Eno1 promoter was “inhibited”.

Take `CC(O)C(=O)[O-].[Na+]` (stereo not shown) [lactate, sodium lactate, reference compound]: in the assay with BAT from wild‐type mice, the “Ucp1 expression suppressed by GPCBi (rescue)” value was “rescued”.

For the molecule “FITC‐tagged GPCBi: FITC‐tagged GPCBi ({FITC}-YGRKKRRQRRRRRTIRLKLIYDRCDLNCRIHKKSRNK; cysteine pairing not given here)”, the cellular localization entry in the assay with iBAT‐SVF cells is “nuclear localization”.

B1: Gabpα-Pparγ complex binding inhibitor (GPCBi) (peptide)
peptide: {FITC}-YGRKKRRQRRRRRTIRLKLIYDRCDLNCRIHKKSRNK
modifications: cysteine pairing not given here
notes: the numbers fit the 505-residue Pparγ2; also called FITC-GPCBi; peptide GPCBi; source: synthetic peptide
In assay [3], B1 showed a Kd of 7.03 nM.

In assay [4], B2 yielded an equilibrium dissociation constant (Kd) of 5.34 nM. This counts as single-digit nanomolar.
